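Following 48 hours of exposure in 96-well plates, responses at five concentrations were used to interpolate endpoints linearly. At the GI50, growth is halved. The concentration for full growth arrest is given as TGI.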
Key:
Test in all cases: inhibition of tumour cell growth, NCI panel, 48 h
[1] = system: SK-OV-3 ovarian
[2] = system: TK-10 renal
[3] = system: NCI-H23 lung
[4] = system: NCI-H226 lung
[5] = system: OVCAR-3 ovarian
[6] = system: MALME-3M melanoma
[7] = system: SF-539 CNS
[8] = system: KM12 colon
[9] = system: DU-145 prostate
[10] = system: OVCAR-8 ovarian

CC[C@@H](C)/C=C(C)/C=C/C(=O)c1c(O)c(-c2ccc(O)cc2)cn(OC2CC(=O)CCC(C)OC(=O)CC2O)c1=O (stereo partly drawn)
GI50 [1]: 0.463 µM
TGI [1]: 35.6 µM
GI50 [2]: 0.442 µM
TGI [2]: 19.9 µM
GI50 [3]: 0.406 µM
TGI [3]: 9.29 µM
GI50 [4]: 0.285 µM
TGI [4]: 3.05 µM
GI50 [5]: 0.284 µM
TGI [5]: 14.1 µM
GI50 [6]: 0.305 µM
TGI [6]: 6.8 µM
GI50 [7]: 0.366 µM
TGI [7]: 3.84 µM
GI50 [8]: 1.56 µM
TGI [8]: 14.7 µM
GI50 [9]: 0.303 µM
TGI [9]: 13.4 µM
GI50 [10]: 0.354 µM
TGI [10]: 22.8 µM

O=C(CN1CCN(C(=O)c2ccco2)CC1)Nc1ccc(Cl)cc1C(=O)c1ccccc1Cl
GI50 [1]: 16.1 µM
TGI [1]: 76.7 µM
GI50 [2]: 10.2 µM
TGI [2]: 36.2 µM
GI50 [3]: 10.4 µM
TGI [3]: 62.2 µM
GI50 [4]: 13.3 µM
TGI [4]: 44.8 µM
GI50 [5]: 5.53 µM
TGI [5]: 17.5 µM
GI50 [6]: 7 µM
TGI [6]: 22.2 µM
GI50 [7]: 13.6 µM
TGI [7]: 26.9 µM
GI50 [8]: 7.33 µM
TGI [8]: 20.9 µM
GI50 [9]: 15.5 µM
TGI [9]: 35.2 µM
GI50 [10]: 11.5 µM
TGI [10]: 53.8 µM

COc1ccc(/C=C\c2cc(OC)c(OC)c(OC)c2)c(NS(=O)(=O)c2ccc(F)cc2)c1O
GI50 [1]: 0.211 µM
TGI [1]: > 100 µM
GI50 [2]: 2.25 µM
TGI [2]: > 100 µM
GI50 [3]: 0.128 µM
TGI [3]: > 62.4 µM
GI50 [4]: 0.142 µM
GI50 [5]: 0.0322 µM
TGI [5]: 1.41 µM
GI50 [6]: 10.2 µM
TGI [6]: > 100 µM
GI50 [7]: 0.0622 µM
TGI [7]: 0.192 µM
GI50 [8]: 0.0556 µM
TGI [8]: > 100 µM
GI50 [9]: 0.039 µM
GI50 [10]: 0.128 µM
TGI [10]: > 100 µM

— PubChem BioAssay (NCI)
